Laboratory results: PubChem BioAssay (NCI)
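Test compounds were applied to cells in 96-well plates for 48 hours at 5 doses. TGI: concentration producing complete growth inhibition.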

Tests used:
Assay in all cases: DTP human tumour cell line panel, 48 h
U251 CNS = test system: U251 CNS
SK-MEL-2 melanoma = test system: SK-MEL-2 melanoma
HOP-92 NSCLC = test system: HOP-92 NSCLC
UO-31 renal = test system: UO-31 renal
MDA-MB-231 breast = test system: MDA-MB-231 breast
NCI-H460 lung = test system: NCI-H460 lung
MALME-3M melanoma = test system: MALME-3M melanoma
PC-3 prostate = test system: PC-3 prostate
UACC-257 melanoma = test system: UACC-257 melanoma
CAKI-1 renal = test system: CAKI-1 renal
MCF7 breast = test system: MCF7 breast
NCI/ADR-RES ovarian = test system: NCI/ADR-RES ovarian
M14 melanoma = test system: M14 melanoma
HT29 colon = test system: HT29 colon
EKVX NSCLC = test system: EKVX NSCLC
BT-549 breast = test system: BT-549 breast
NCI-H226 lung = test system: NCI-H226 lung
SF-295 CNS = test system: SF-295 CNS
T-47D breast = test system: T-47D breast
SNB-75 CNS = test system: SNB-75 CNS
OVCAR-4 ovarian = test system: OVCAR-4 ovarian
DU-145 prostate = test system: DU-145 prostate
MOLT-4 leukemia = test system: MOLT-4 leukemia
K-562 leukemia = test system: K-562 leukemia
LOX IMVI melanoma = test system: LOX IMVI melanoma
ACHN renal = test system: ACHN renal
TK-10 renal = test system: TK-10 renal
IGROV1 ovarian = test system: IGROV1 ovarian
SN12C renal = test system: SN12C renal
HCC-2998 colon = test system: HCC-2998 colon
MDA-MB-435 = test system: MDA-MB-435
UACC-62 melanoma = test system: UACC-62 melanoma
OVCAR-5 ovarian = test system: OVCAR-5 ovarian
HCT-15 colon = test system: HCT-15 colon
SW-620 colon = test system: SW-620 colon
COLO 205 colon = test system: COLO 205 colon
A498 renal = test system: A498 renal
HCT-116 colon = test system: HCT-116 colon
SK-OV-3 ovarian = test system: SK-OV-3 ovarian
SR leukemia = test system: SR leukemia
A549 NSCLC = test system: A549 NSCLC
NCI-H23 lung = test system: NCI-H23 lung
SK-MEL-28 melanoma = test system: SK-MEL-28 melanoma
OVCAR-3 ovarian = test system: OVCAR-3 ovarian
HS 578T breast = test system: HS 578T breast
RXF 393 renal = test system: RXF 393 renal
SF-268 CNS = test system: SF-268 CNS
OVCAR-8 ovarian = test system: OVCAR-8 ovarian
SF-539 CNS = test system: SF-539 CNS
HOP-62 NSCLC = test system: HOP-62 NSCLC
KM12 colon = test system: KM12 colon
CCRF-CEM leukemia = test system: CCRF-CEM leukemia
786-0 renal = test system: 786-0 renal
RPMI-8226 leukemia = test system: RPMI-8226 leukemia
SK-MEL-5 melanoma = test system: SK-MEL-5 melanoma
NCI-H522 lung = test system: NCI-H522 lung
SNB-19 CNS = test system: SNB-19 CNS
MDA-N = test system: MDA-N
HL-60(TB) leukemia = test system: HL-60(TB) leukemia

O=C(CC(=O)c1ccncc1)c1ccccc1
TGI (U251 CNS): > 100 µM | TGI (SK-MEL-2 melanoma): > 100 µM | TGI (HOP-92 NSCLC): > 100 µM | TGI (UO-31 renal): > 100 µM | TGI (MDA-MB-231 breast): > 100 µM | TGI (NCI-H460 lung): > 100 µM | TGI (MALME-3M melanoma): > 89.2 µM | TGI (PC-3 prostate): > 100 µM | TGI (UACC-257 melanoma): > 100 µM | TGI (CAKI-1 renal): > 100 µM | TGI (MCF7 breast): > 100 µM | TGI (NCI/ADR-RES ovarian): 69.3 µM | TGI (M14 melanoma): > 100 µM | TGI (HT29 colon): > 100 µM | TGI (EKVX NSCLC): > 100 µM | TGI (BT-549 breast): > 100 µM | TGI (NCI-H226 lung): > 100 µM | TGI (SF-295 CNS): > 100 µM | TGI (T-47D breast): > 100 µM | TGI (SNB-75 CNS): > 100 µM | TGI (OVCAR-4 ovarian): > 100 µM | TGI (DU-145 prostate): > 100 µM | TGI (MOLT-4 leukemia): > 100 µM | TGI (K-562 leukemia): > 100 µM | TGI (LOX IMVI melanoma): > 100 µM | TGI (ACHN renal): > 100 µM | TGI (TK-10 renal): > 100 µM | TGI (IGROV1 ovarian): > 100 µM | TGI (SN12C renal): > 62.5 µM | TGI (HCC-2998 colon): > 100 µM | TGI (MDA-MB-435): > 100 µM | TGI (UACC-62 melanoma): > 100 µM | TGI (OVCAR-5 ovarian): > 100 µM | TGI (HCT-15 colon): > 100 µM | TGI (SW-620 colon): > 100 µM | TGI (COLO 205 colon): > 100 µM | TGI (A498 renal): > 100 µM | TGI (HCT-116 colon): > 100 µM | TGI (SK-OV-3 ovarian): > 100 µM | TGI (SR leukemia): > 100 µM | TGI (A549 NSCLC): > 100 µM | TGI (NCI-H23 lung): > 100 µM | TGI (SK-MEL-28 melanoma): > 100 µM | TGI (OVCAR-3 ovarian): > 100 µM | TGI (HS 578T breast): > 100 µM | TGI (RXF 393 renal): > 100 µM | TGI (SF-268 CNS): > 100 µM | TGI (OVCAR-8 ovarian): > 100 µM | TGI (SF-539 CNS): > 100 µM | TGI (HOP-62 NSCLC): > 100 µM | TGI (KM12 colon): > 100 µM | TGI (CCRF-CEM leukemia): > 41.8 µM | TGI (786-0 renal): > 100 µM | TGI (RPMI-8226 leukemia): > 100 µM | TGI (SK-MEL-5 melanoma): > 100 µM | TGI (NCI-H522 lung): > 100 µM | TGI (SNB-19 CNS): > 100 µM | TGI (MDA-N): > 100 µM

CCN(CC)CC(O)c1ccc2ccc3ccccc3c2c1 (configuration not stated)
TGI (U251 CNS): 26 µM | TGI (SK-MEL-2 melanoma): 30.9 µM | TGI (HOP-92 NSCLC): 31.3 µM | TGI (UO-31 renal): 24.1 µM | TGI (MDA-MB-231 breast): 28.4 µM | TGI (NCI-H460 lung): 32.7 µM | TGI (MALME-3M melanoma): 34 µM | TGI (PC-3 prostate): 30.1 µM | TGI (UACC-257 melanoma): 31.5 µM | TGI (CAKI-1 renal): 26.6 µM | TGI (MCF7 breast): 28.2 µM | TGI (NCI/ADR-RES ovarian): 33.6 µM | TGI (M14 melanoma): 30.9 µM | TGI (HT29 colon): 25.2 µM | TGI (EKVX NSCLC): 29.5 µM | TGI (BT-549 breast): 30.5 µM | TGI (NCI-H226 lung): 29.5 µM | TGI (HL-60(TB) leukemia): 30.1 µM | TGI (SF-295 CNS): 28.9 µM | TGI (T-47D breast): 37.7 µM | TGI (SNB-75 CNS): 33.5 µM | TGI (OVCAR-4 ovarian): 35.3 µM | TGI (DU-145 prostate): 33 µM | TGI (MOLT-4 leukemia): 32.9 µM | TGI (K-562 leukemia): 32.5 µM | TGI (LOX IMVI melanoma): 35.5 µM | TGI (ACHN renal): 27.3 µM | TGI (TK-10 renal): 29.9 µM | TGI (IGROV1 ovarian): 33 µM | TGI (SN12C renal): 32.1 µM | TGI (HCC-2998 colon): 23 µM | TGI (MDA-MB-435): 31.3 µM | TGI (UACC-62 melanoma): 29.1 µM | TGI (OVCAR-5 ovarian): 27.5 µM | TGI (HCT-15 colon): 33.2 µM | TGI (SW-620 colon): 34.9 µM | TGI (COLO 205 colon): 29.9 µM | TGI (A498 renal): 26.3 µM | TGI (HCT-116 colon): 29.5 µM | TGI (SK-OV-3 ovarian): 29.5 µM | TGI (SR leukemia): 24.8 µM | TGI (A549 NSCLC): 31.4 µM | TGI (NCI-H23 lung): 37 µM | TGI (SK-MEL-28 melanoma): 34.6 µM | TGI (OVCAR-3 ovarian): 29.1 µM | TGI (HS 578T breast): 41.9 µM | TGI (RXF 393 renal): 31.4 µM | TGI (SF-268 CNS): 34.7 µM | TGI (OVCAR-8 ovarian): 32 µM | TGI (SF-539 CNS): 25.8 µM | TGI (HOP-62 NSCLC): 29.6 µM | TGI (KM12 colon): 29.1 µM | TGI (CCRF-CEM leukemia): 45.3 µM | TGI (786-0 renal): 25.6 µM | TGI (RPMI-8226 leukemia): 38.2 µM | TGI (SK-MEL-5 melanoma): 27.3 µM | TGI (NCI-H522 lung): 31.9 µM | TGI (SNB-19 CNS): 29.5 µM | TGI (MDA-N): 31 µM
